pIC50: −log10 of the molar value.

The target of test [1] is Isoform Alpha-1 of Mitogen-activated protein kinase 10 (Alpha-1) 9-402] (Homo sapiens, UniProt P53779). Nature of the test: Homogeneous Time-resolved Fluorescence Assay. To be noted: pH 7; 22 °C.
Protocol: (§1) Biochemical IC50s for JNK were determined using HTRF. In each assay the phosphor-Thr71-ATF-2 product was detected using a Europium-cryptate labeled anti-phospho-Thr71-ATF-2 antibody. Streptavidin-allophycocyanin-XL was used as the acceptor. A 10-point dose-response curve for each compound was generated in duplicate and data was fit to a four parameter logistic.
In test [2] the target is Mitogen-activated protein kinase 8 (Homo sapiens, UniProt P45983). Nature of the test: Homogeneous Time-resolved Fluorescence Assay.
Chain of Mitogen-activated protein kinase 8 (P45983 whole entry): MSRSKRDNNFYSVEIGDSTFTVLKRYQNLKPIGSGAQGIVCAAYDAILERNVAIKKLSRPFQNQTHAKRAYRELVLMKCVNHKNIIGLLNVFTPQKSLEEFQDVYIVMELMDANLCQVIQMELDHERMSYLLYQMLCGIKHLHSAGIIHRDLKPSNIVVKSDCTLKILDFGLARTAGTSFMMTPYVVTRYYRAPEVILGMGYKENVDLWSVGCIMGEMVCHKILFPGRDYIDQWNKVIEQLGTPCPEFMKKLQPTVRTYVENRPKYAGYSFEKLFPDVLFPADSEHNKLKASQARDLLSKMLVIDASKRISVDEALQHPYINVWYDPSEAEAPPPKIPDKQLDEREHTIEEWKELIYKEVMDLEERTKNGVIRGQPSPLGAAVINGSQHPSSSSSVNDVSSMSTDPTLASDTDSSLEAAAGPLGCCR
Protocol: as §1

Chain of Isoform Alpha-1 of Mitogen-activated protein kinase 10 (Alpha-1) 9-402] (P53779 39-402): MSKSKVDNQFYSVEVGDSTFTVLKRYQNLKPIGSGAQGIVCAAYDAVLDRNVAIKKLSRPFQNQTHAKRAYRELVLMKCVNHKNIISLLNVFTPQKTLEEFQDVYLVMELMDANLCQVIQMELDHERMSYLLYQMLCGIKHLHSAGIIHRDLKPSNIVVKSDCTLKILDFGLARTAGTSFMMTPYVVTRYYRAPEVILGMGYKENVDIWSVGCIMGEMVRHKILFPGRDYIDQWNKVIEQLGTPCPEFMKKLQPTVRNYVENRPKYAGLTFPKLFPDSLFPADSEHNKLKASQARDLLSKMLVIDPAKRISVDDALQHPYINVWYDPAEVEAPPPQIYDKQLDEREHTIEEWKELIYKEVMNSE

Regarding `C=CCN1CCN(c2c(Cl)cccc2NC(=O)c2ccc(Br)o2)CC1` [piperazine amide, 6a], the figures for the pIC50 in test [1] and in test [2] were 5.90 and 6.42, respectively.

The values above are taken from BindingDB's records for doi:10.1016/j.bmcl.2009.03.086 (The Scripps Research Institute, 2009).
